Consider one substance from patent US20170348331A1, “METHODS AND COMPOSITIONS FOR […] LEVELS” (Children's Hospital & Research Center at Oakland, priority 2013, published 2017).

One assay deals with melatonin production. As to conditions: increasing doses of vitamin D supplementation; cited from earlier work.
The test system of assay [1] is TPH1. The assay is described as follows: TPH1 expression in placental tissue homogenate of a pregnant person by ELISA. It counts as in vivo, human. Conditions: pregnant person with elevated TPH1, about 1,000 IU per 11.3 kg per day, after 4 weeks. The procedure: TPH1 expression levels are determined from placental tissue homogenate obtained from a pregnant person by ELISA analysis. […] This means that the parent has increased risk of having child with autistic spectrum disorder. Vitamin D is then administered to the pregnant person at about 1,000 IU per 11.3 kg per day. After 4 weeks of the vitamin D treatment, TPH1 expression levels are assayed in placental tissue homogenate by ELISA analysis again. […] This implies the risk of having autistic child is reduced.

Assay [2] relates to TPH1. The assay can be described thus: TPH1 expression in peripheral blood cells of a pregnant mother by ELISA. Type of assay: in vivo, human. Conditions: pregnant mother with elevated TPH1, ~1,000 IU per 11.3 kg per day, after 4 weeks. The procedure: TPH1 expression levels are determined from peripheral blood cells by ELISA analysis from a pregnant mother. […] This means that the mother has increased risk of having autistic child. Vitamin D is then be administered ˜1,000 IU per 11.3 kg per day. After 4 weeks of the vitamin D treatment, TPH1 expression levels are assayed in peripheral blood by ELISA analysis again. […] The vitamin D treatment will continue through pregnancy and breastfeeding. This implies the risk of having autistic child is reduced.

Assay [3] concerns regulatory T cells (Tregs). As to conditions: vitamin D supplementation; cited from earlier work.

On to Vitamin D, for which, in the assay on melatonin production, the melatonin production entry is recorded as “dose-dependent decrease”. For the same substance, the “TPH1 expression level in placental tissue homogenate” value in the assay on TPH1 [1] is reported as “decreased to normal range”. In addition, the “TPH1 expression level in peripheral blood” value with TPH1 [2] is recorded as “decreased to normal range”. In addition, in assay [3], the “Tregs in peripheral blood” value was “significantly increase Tregs”.
